In patent publication US7732375B2, “Hexyl carboxanilides and their use for controlling fungi” (Bayer CropScience AG, priority 2003, dated 2010):

Assays:
[1] = logP determination by HPLC on reversed-phase column (C 18), EEC Directive 79/831 Annex V.A8; assay type: physicochemical; details: reversed-phase HPLC column (C 18), pH 2.3, 0.1% aqueous phosphoric acid and acetonitrile, 43° C.
Protocol: The determination of the logP values given in the preparation examples and tables above is carried out in accordance with EEC Directive 79/831 Annex V.A8 by HPLC (High Performance Liquid Chromatography) on a reversed-phase column (C 18). Temperature: 43° C. The determination is carried out in the acidic range at pH 2.3 using the mobile phases, 0.1% aqueous phosphoric acid and acetonitrile; linear gradient from 10% acetonitrile to 90% acetonitrile. Calibration is carried out using unbranched alkan-2-ones (of 3 to 16 carbon atoms) with known logP values (determination of the logP values by the retention times using linear interpolation between two successive alkanones).

Podosphaera leucotricha = test: Podosphaera test (apple)/protective; assay type: in vivo; details: 240 h, protective, application rate 100 g/ha, evaluation 10 days after inoculation, read-out: Efficacy in %
Protocol: (§1) • Solvents: 24.5 parts by weight of acetone • 24.5 parts by weight of dimethylacetamide • Emulsifier: 1 part by weight of alkylaryl polyglycol ether
(§2) To produce a suitable preparation of active compound, 1 part by weight of active compound is mixed with the stated amounts of solvents and emulsifier, and the concentrate is diluted with water to the desired concentration.
To test for protective activity, young plants are sprayed with the preparation of active compound at the stated application rate. After the spray coating has dried on, the plants are inoculated with an aqueous spore suspension of the apple mildew pathogen Podosphaera leucotricha. The plants are then placed in a greenhouse at about 23° C. and a relative atmospheric humidity of about 70%.
(§3) Evaluation is carried out 10 days after the inoculation. 0% means an efficacy which corresponds to that of the control, whereas an efficacy of 100% means that no infection is observed.

Venturia inaequalis = test: Venturia test (apple)/protective; assay type: in vivo; details: protective, application rate 100 g/ha, evaluation 10 days after inoculation; for pest or weed control at 100 g/ha: Venturia inaequalis, 240 h, read-out: Efficacy in %
Protocol: as §1, §2
To test for protective activity, young plants are sprayed with the preparation of active compound at the stated application rate. After the spray coating has dried on, the plants are inoculated with an aqueous conidia suspension of the apple scab pathogen Venturia inaequalis and then remain in an incubation cabin at about 20° C. and 100% relative atmospheric humidity for 1 day.
The plants are then placed in a greenhouse at about 21° C. and a relative atmospheric humidity of about 90%.
as §3

Puccinia recondita = test: Puccinia test (wheat)/protective; assay type: in vivo; details: evaluation 10 days after inoculation
Protocol: • a) Solvent: 50 parts by weight of N,N-dimethylacetamide Emulsifier: 1 part by weight of alkylaryl polyglycol ether • b) Solvent: 25 parts by weight of N,N-dimethylacetamide Emulsifier: 0.6 part by weight of alkylaryl polyglycol ether To produce a suitable preparation of active compound, 1 part by weight of active compound is mixed with the stated amounts of solvent and emulsifier, and the concentrate is diluted with water to the desired concentration. To test for protective activity, young plants are sprayed with the preparation of active compound at the stated application rate. After the spray coating has dried on, the plants are sprayed with a conidia suspension of Puccinia recondita. The plants remain in an incubation cabin at 20° C. and 100% relative atmospheric humidity for 48 hours. The plants are then placed in a greenhouse at a temperature of about 20° C. and a relative atmospheric humidity of 80% to promote the development of rust pustules. Evaluation is carried out 10 days after the inoculation. 0% means an efficacy which corresponds to that of the control, whereas an efficacy of 100% means that no infection is observed.

Botrytis cinerea = test: Botrytis test (bean)/protective; assay type: in vivo; details: protective, application rate 500 g/ha, evaluation 2 days after inoculation; for pest or weed control at 500 g/ha: Botrytis cinerea, 48 h, read-out: Efficacy in %
Protocol: as §1, §2
To test for protective activity, young plants are sprayed with the preparation of active compound at the stated application rate. After the spray coating has dried on, 2 small pieces of agar colonized by Botrytis cinerea are placed onto each leaf. The inoculated plants are placed in a dark chamber at about 20° C. and 100% relative atmospheric humidity.
2 days after the inoculation, the size of the infected areas on the leaves is evaluated. 0% means an efficacy which corresponds to that of the control, whereas an efficacy of 100% means that no infection is observed.

Sphaerotheca fuliginea = test: Sphaerotheca test (cucumber)/protective; assay type: in vivo; details: protective, application rate 750 g/ha, evaluation 7 days after inoculation
Protocol: Solvent: 49 parts by weight of N,N-dimethylformamide Emulsifier: 1 part by weight of alkylaryl polyglycol ether To produce a suitable preparation of active compound, 1 part by weight of active compound is mixed with the stated amounts of solvent and emulsifier, and the concentrate is diluted with water to the desired concentration. To test for protective activity, young cucumber plants are sprayed with the preparation of active compound at the stated application rate. 1 day after treatment the plants are inoculated with a spore suspension of Sphaerotheca fuliginea. The plants are then placed in a greenhouse at a relative atmospheric humidity of 70% and a temperature of 23° C. Evaluation is carried out 7 days after the inoculation. 0% means an efficacy which corresponds to that of the control, whereas an efficacy of 100% means that no infection is observed.

[2] = system: Erysiphe graminis f.sp. hordei; test: Erysiphe test (barley)/protective; assay type: in vivo; details: protective, application rate 500 g/ha, evaluation 7 days after inoculation
Protocol: Solvent: 25 parts by weight of N,N-dimethylacetamide Emulsifier: 0.6 part by weight of alkylaryl polyglycol ether To produce a suitable preparation of active compound, 1 part by weight of active compound is mixed with the stated amounts of solvent and emulsifier, and the concentrate is diluted with water to the desired concentration. To test for protective activity, young plants are sprayed with the preparation of active compound at the stated application rate. After the spray coating has dried on, the plants are dusted with spores of Erysiphe graminis f.sp. hordei. The plants are placed in a greenhouse at a temperature of about 20° C. and a relative atmospheric humidity of about 80% to promote the development of mildew pustules. Evaluation is carried out 7 days after the inoculation. 0% means an efficacy which corresponds to that of the control, whereas an efficacy of 100% means that no infection is observed.

[3] = wheat; application rate 500 g/ha; solvent/emulsifier b)
[4] = wheat; application rate 500 g/ha; solvent/emulsifier a)

## Cn1cc(C(=O)Cl)c(C(Cl)Cl)n1 [Example (II-1), 3-dichloromethyl-1-methyl-1H-pyrazole-4-carbonyl chloride]
[1]
  chromatographic logP: 1.8

## CC(CC(C)(C)C)c1ccccc1NC(=O)c1cn(C)nc1Cl (stereo not drawn) [drawing 91]
Podosphaera leucotricha
  pest or weed control at 100 g/ha: 100%

## CCC(C)(C)CC(C)c1ccccc1NC(=O)c1sccc1C (stereo not drawn) [drawing 98]
Venturia inaequalis
  pest or weed control at 100 g/ha: 99%

## Cc1occc1C(=O)Nc1ccccc1C(C)CC(C)(C)C (stereo not drawn)
Puccinia recondita; [3]
  Efficacy in %: 100%

## CCC(C)(C)CC(C)c1ccccc1NC(=O)c1sccc1C (stereo not drawn) [drawing 108]
Botrytis cinerea
  pest or weed control at 500 g/ha: 100%

## Cc1ccsc1C(=O)Nc1ccccc1C(C)CC(C)(C)C (stereo not drawn) [drawing 124]
Sphaerotheca fuliginea
  Efficacy in %: 95%

## Cc1ccsc1C(=O)Nc1ccccc1C(C)CC(C)(C)C (stereo not drawn) [drawing 94]
Venturia inaequalis
  pest or weed control at 100 g/ha: 96%

## CCC(C)(C)CC(C)c1ccccc1NC(=O)c1ccoc1C (stereo not drawn) [drawing 107]
Botrytis cinerea
  pest or weed control at 500 g/ha: 88%

## Cc1ccsc1C(=O)Nc1ccccc1C(C)CC(C)(C)C (stereo not drawn) [drawing 127]
[2]
  Efficacy in %: 100%

## Cc1nc(C(F)(F)F)c(C(=O)Nc2ccccc2C(C)CC(C)(C)C)s1 (stereo not drawn) [drawing 103]
Venturia inaequalis
  pest or weed control at 100 g/ha: 99%

## CC(CC(C)(C)C)c1ccccc1NC(=O)c1cn(C)nc1C(F)(F)F (stereo not drawn) [drawing 89]
Podosphaera leucotricha
  pest or weed control at 100 g/ha: 95%

## Cc1ccsc1C(=O)Nc1ccccc1C(C)CC(C)(C)C (stereo not drawn) [drawing 119]
Puccinia recondita; [3]
  Efficacy in %: 100%

## CCc1nn(C)c(Cl)c1C(=O)Nc1ccccc1C(C)CC(C)(C)C (stereo not drawn) [drawing 118]
Puccinia recondita; [4]
  Efficacy in %: 100%

## CCC(C)(C)CC(C)c1ccccc1NC(=O)C1=C(C)OCCS1 (stereo not drawn) [drawing 96]
Venturia inaequalis
  pest or weed control at 100 g/ha: 100%

## CCC(C)(C)CC(C)c1ccccc1NC(=O)c1sccc1C (stereo not drawn) [drawing 88]
Podosphaera leucotricha
  pest or weed control at 100 g/ha: 98%

## CC1=C(C(=O)Nc2ccccc2C(C)CC(C)(C)C)SCCO1 (stereo not drawn) [drawing 105]
Botrytis cinerea
  pest or weed control at 500 g/ha: 95%

## CCC(C)(C)CC(C)c1ccccc1NC(=O)C1=C(C)OCCS1 (stereo not drawn) [drawing 128]
[2]
  Efficacy in %: 94%

## Cc1ccsc1C(=O)Nc1ccccc1C(C)CC(C)(C)C (stereo not drawn) [drawing 85]
Podosphaera leucotricha
  pest or weed control at 100 g/ha: 85%

## CCC(C)(C)CC(C)c1ccccc1NC(=O)C1=C(C)OCCS1 (stereo not drawn) [drawing 86]
Podosphaera leucotricha
  pest or weed control at 100 g/ha: 94%

## Cc1nc(C(F)(F)F)c(C(=O)Nc2ccccc2C(C)CC(C)(C)C)s1 (stereo not drawn) [drawing 130]
[2]
  Efficacy in %: 100%

## CCc1nn(C)c(Cl)c1C(=O)Nc1ccccc1C(C)CC(C)(C)C (stereo not drawn) [drawing 90]
Podosphaera leucotricha
  pest or weed control at 100 g/ha: 96%

## Cc1ccsc1C(=O)Nc1ccccc1C(C)CC(C)(C)C (stereo not drawn) [drawing 104]
Botrytis cinerea
  pest or weed control at 500 g/ha: 100%

## CC(F)c1nn(C)cc1C(=O)Nc1ccccc1C(C)CC(C)(C)C (stereo not drawn)
Sphaerotheca fuliginea
  Efficacy in %: 90%

## CCC(C)(C)CC(C)c1ccccc1NC(=O)c1ccoc1C (stereo not drawn) [drawing 87]
Podosphaera leucotricha
  pest or weed control at 100 g/ha: 91%

## CCC(C)(C)CC(C)c1ccccc1NC(=O)c1ccoc1C (stereo not drawn) [drawing 97]
Venturia inaequalis
  pest or weed control at 100 g/ha: 93%

## Cc1nc(C)c(C(=O)Nc2ccccc2C(C)CC(C)(C)C)s1 (stereo not drawn) [drawing 113]
Puccinia recondita; [4]
  Efficacy in %: 100%

## CC(CC(C)(C)C)c1ccccc1NC(=O)c1c(C(F)(F)F)nn(C)c1Cl (stereo not drawn)
Podosphaera leucotricha
  pest or weed control at 100 g/ha: 97%

## CC(CC(C)(C)C)c1ccccc1NC(=O)c1cn(C)nc1C(F)(F)F (stereo not drawn) [drawing 111]
Botrytis cinerea
  Efficacy in %: 97%

## CCC(C)(C)CC(C)c1ccccc1NC(=O)C1=C(C)OCCS1 (stereo not drawn) [drawing 114]
Puccinia recondita; [4]
  Efficacy in %: 100%

## CCC(C)(C)CC(C)c1ccccc1NC(=O)c1cn(C)nc1C(F)(F)F (stereo not drawn)
Puccinia recondita; [4]
  Efficacy in %: 100%

## CCC(C)(C)CC(C)c1ccccc1NC(=O)C1=C(C)OCCS1 (stereo not drawn) [drawing 106]
Botrytis cinerea
  pest or weed control at 500 g/ha: 100%

## CCc1nn(C)c(Cl)c1C(=O)Nc1ccccc1C(C)CC(C)(C)C (stereo not drawn) [drawing 100]
Venturia inaequalis
  pest or weed control at 100 g/ha: 92%

## CCC(C)(C)CC(C)c1ccccc1NC(=O)c1ccoc1C (stereo not drawn) [drawing 129]
[2]
  Efficacy in %: 100%

## CC(CC(C)(C)C)c1ccccc1NC(=O)c1cn(C)nc1Cl (stereo not drawn) [drawing 110]
Botrytis cinerea
  pest or weed control at 500 g/ha: 95%

## Cc1nc(C)c(C(=O)Nc2ccccc2C(C)CC(C)(C)C)s1 (stereo not drawn) [drawing 123]
Sphaerotheca fuliginea
  Efficacy in %: 95%

## CC1=C(C(=O)Nc2ccccc2C(C)CC(C)(C)C)SCCO1 (stereo not drawn) [drawing 95]
Venturia inaequalis
  pest or weed control at 100 g/ha: 100%

## CC(CC(C)(C)C)c1ccccc1NC(=O)c1cn(C)nc1C(F)(F)F (stereo not drawn) [drawing 117]
Puccinia recondita; [4]
  Efficacy in %: 100%

## CC(CC(C)(C)C)c1ccccc1NC(=O)c1cn(C)nc1C(Cl)Cl (stereo not drawn) [Example 1]
[1]
  chromatographic logP: 4.02

## CC(CC(C)(C)C)c1ccccc1NC(=O)c1cn(C)nc1C(F)(F)F (stereo not drawn) [drawing 102]
Venturia inaequalis
  Efficacy in %: 99%

## CCC(C)(C)CC(C)c1ccccc1NC(=O)c1ccoc1C (stereo not drawn) [drawing 122]
Puccinia recondita; [3]
  Efficacy in %: 100%

## Cc1nc(C)c(C(=O)Nc2ccccc2C(C)CC(C)(C)C)s1 (stereo not drawn) [drawing 126]
[2]
  Efficacy in %: 100%

## CC(CC(C)(C)C)c1ccccc1NC(=O)c1cn(C)nc1C(F)(F)F (stereo not drawn) [drawing 109]
Botrytis cinerea
  pest or weed control at 500 g/ha: 100%

## Cc1nc(Cl)sc1C(=O)Nc1ccccc1C(C)CC(C)(C)C (stereo not drawn)
Puccinia recondita; [4]
  Efficacy in %: 100%

## CC(CC(C)(C)C)c1ccccc1NC(=O)c1cn(C)nc1C(F)(F)F (stereo not drawn) [drawing 99]
Venturia inaequalis
  pest or weed control at 100 g/ha: 95%

## Cc1nc(C(F)(F)F)c(C(=O)Nc2ccccc2C(C)CC(C)(C)C)s1 (stereo not drawn) [drawing 93]
Podosphaera leucotricha
  pest or weed control at 100 g/ha: 100%

## CC1=C(C(=O)Nc2ccccc2C(C)CC(C)(C)C)SCCO1 (stereo not drawn) [drawing 121]
Puccinia recondita; [3]
  Efficacy in %: 100%

## CC(CC(C)(C)C)c1ccccc1NC(=O)c1cn(C)nc1Cl (stereo not drawn) [drawing 101]
Venturia inaequalis
  pest or weed control at 100 g/ha: 100%

## Cc1nc(C(F)(F)F)c(C(=O)Nc2ccccc2C(C)CC(C)(C)C)s1 (stereo not drawn) [drawing 112]
Botrytis cinerea
  pest or weed control at 500 g/ha: 95%
